Assay results reported in patent US20190015505A1, “Method of Mediating Cardiovascular Hypertrophy and Perivascular Fibrosis Induced by Angiotensin II” (UNIVERSITY OF MACAU, priority 2017, published 2019).

Assays:
[1] = tested on: VSMCs stimulated with AngII; test: Pro-fibrotic response: extracellular collagen content (Sirius Red kit) in VSMCs stimulated with AngII; type: cell-based; conditions: rat VSMCs, 100 nM AngII 48 hours; JG26 1 ̂mol/L, erlotinib 1 ̂mol/L, PBA 10 mmol/L pretreated 30 min; adenovirus 100 m.o.i.
Procedure: (§1) VSMCs were prepared from thoracic aortas of male Sprague-Dawley rats by the explant method as described previously^21. VSMCs were subcultured in DMEM containing 10% fetal bovine serum, penicillin and streptomycin. Cells from passage 3 to 10 at 80˜90% confluence were made quiescent by incubation with serum-free medium for 2-3 days.
To evaluate pro-fibrotic response, serum-starved VSMCs were stimulated with 100 nM AngII for 48 hours and extracellular cellular collagen content was quantified by Sirius Red collagen quantification kit (Chondrex) according to the manufacture's protocol. Recombinant adenoviral vector encoding rat ADAM17 siRNA was created and specificity and efficiency has been reported^11. VSMCs were infected with 100 m.o.i. adenovirus prior to the AngII stimulation as reported previously^11. ADAM17 selective inhibitor compound #21 (JG26)^8 was generated as reported. VSMCs were pretreated
with 1 ̂mol/L JG26 or vehicle (0.1% DMSO in final) for 30 min prior to the AngII stimulation. 4-phenylbutyrate (PBA) was obtained from Scandinavian Formulas and solubilized in DMEM. VSMCs were pretreated with 10 mmol/L PBA for 30 min.
Erlotinib (OSI Pharmaceuticals) was obtained from Genentech. VSMCs were pretreated with 1 ̂mol/L erlotinib for 30 min.
To test for the role of ADAM17 in AngII-induced vascular fibrosis, extracellular collagen content was evaluated in VSMCs stimulated with AngII. Adenovirus encoding ADAM17 siRNA^11 attenuated the AngII-induced enhancement in collagen content (FIG. 4A and 4B). Treatment of VSMCs with ADAM17 antibody A9B8, a highly-selective ADAM17 inhibitor JG26/compound 21^22, an EGFR kinase inhibitor erlotinib or a chemical ER chaperone PBA also attenuated AngII-induced enhancement in collagen content (FIG. 4C). As shown with the ADAM17 siRNA^11, A9B8 as well as JG26 inhibited AngII-induced EGFR transactivation assessed with an auto-phosphorylation site antibody (FIG. 4D).

EGFR = test: AngII-induced EGFR transactivation in VSMCs, immunoblotting with auto-phosphorylation site antibody; type: cell-based; conditions: rat VSMCs, 100 nM AngII, auto-phosphorylation site antibody (Tyr1068)
Procedure: as §1
Immunoblotting (IB) was performed as previously described^21. Quiescent VSMCs grown on 6-well plates were stimulated with 100 nM AngII (Sigma) for specified durations. The reaction was terminated by the replacement of medium with 100 ̂L of 1xSDS lysis buffer. 40 ̂L of the cell lysates were subjected to SDS-PAGE gel electrophoresis and electrophoretically transferred to a nitrocellulose membrane. The membranes were then exposed to primary antibodies overnight at 4° C. After incubation with the peroxidase linked secondary antibody for 1 h at room temperature, immunoreactive proteins were visualized using a chemiluminescence reaction kit. […]
To test for the role of ADAM17 in AngII-induced vascular fibrosis, extracellular collagen content was evaluated in VSMCs stimulated with AngII. […] As shown with the ADAM17 siRNA^11, A9B8 as well as JG26 inhibited AngII-induced EGFR transactivation assessed with an auto-phosphorylation site antibody (FIG. 4D).

Compound | AngII-induced enhancement in collagen content [1] | AngII-induced EGFR transactivation (EGFR)
C#Cc1cccc(Nc2ncnc3cc(OCCOC)c(OCCOC)cc23)c1 [erlotinib, Erlotinib] | attenuated | 
4-phenylbutyrate [PBA] | attenuated | 
NC(=O)NCCC[C@@H](NS(=O)(=O)c1ccc(OCc2cc(Br)cc(Br)c2)cc1)C(=O)NO [JG26, reference compound] | attenuated | inhibited
